Key:
Format in all cases: functional
Avena sterilis [1] = assay: Herbicidal activity against Avena sterilis accession P20 assessed as induction of weed mortality
Avena sterilis [2] = assay: Herbicidal activity against Avena sterilis accession P17 assessed as induction of weed mortality
Avena sterilis [3] = assay: Herbicidal activity against Avena sterilis accession P09 assessed as weed survival at 32 times field recommended herbicide dose
Avena sterilis [4] = assay: Herbicidal activity against Avena sterilis accession P10S assessed as induction of weed mortality
Avena sterilis [5] = assay: Herbicidal activity against Avena sterilis accession P19S assessed as weed survival at 1/32 times field recommended herbicide dose
Avena sterilis [6] = assay: Herbicidal activity against Avena sterilis accession P07 assessed as weed survival at 1 times field recommended herbicide dose
Avena sterilis [7] = assay: Herbicidal activity against Avena sterilis accession P12 assessed as weed survival at 8 times field recommended herbicide dose
Avena sterilis [8] = assay: Herbicidal activity against Avena sterilis accession P01 assessed as weed survival at 4 times field recommended herbicide dose
Avena sterilis [9] = assay: Herbicidal activity against Avena sterilis accession P20 assessed as weed survival at 1 times field recommended herbicide dose
Avena sterilis [10] = assay: Herbicidal activity against Avena sterilis accession P10S assessed as weed survival at 1/4 times field recommended herbicide dose
Avena sterilis [11] = assay: Herbicidal activity against Avena sterilis accession P01 assessed as weed survival at 8 times field recommended herbicide dose
Avena sterilis [12] = assay: Herbicidal activity against Avena sterilis accession P02 assessed as weed survival at 32 times field recommended herbicide dose
Avena sterilis [13] = assay: Herbicidal activity against Avena sterilis accession P06S assessed as weed survival at 1/16 times field recommended herbicide dose
Avena sterilis [14] = assay: Herbicidal activity against Avena sterilis accession P20 assessed as weed survival at 16 times field recommended herbicide dose
Avena sterilis [15] = assay: Herbicidal activity against Avena sterilis accession P20 assessed as weed survival at 8 times field recommended herbicide dose
Avena sterilis [16] = assay: Herbicidal activity against Avena sterilis accession P13S assessed as weed survival at 1/4 times field recommended herbicide dose
Avena sterilis [17] = assay: Herbicidal activity against Avena sterilis accession P21S assessed as weed survival at 1 times field recommended herbicide dose
Avena sterilis [18] = assay: Herbicidal activity against Avena sterilis accession P03 assessed as weed survival at 1 times field recommended herbicide dose
Avena sterilis [19] = assay: Herbicidal activity against Avena sterilis accession P14 assessed as weed survival at 4 times field recommended herbicide dose
Avena sterilis [20] = assay: Herbicidal activity against Avena sterilis accession P09 assessed as weed survival at 8 times field recommended herbicide dose
Avena sterilis [21] = assay: Herbicidal activity against Avena sterilis accession P14 assessed as weed survival at 16 times field recommended herbicide dose
Avena sterilis [22] = assay: Herbicidal activity against Avena sterilis accession P07 assessed as induction of weed mortality
Avena sterilis [23] = assay: Herbicidal activity against Avena sterilis accession P09 assessed as induction of weed mortality
Avena sterilis [24] = assay: Herbicidal activity against Avena sterilis accession P12 assessed as weed survival at 1 times field recommended herbicide dose
Avena sterilis [25] = assay: Herbicidal activity against Avena sterilis accession P06S assessed as induction of weed mortality
Avena sterilis [26] = assay: Herbicidal activity against Avena sterilis accession P15 assessed as weed survival at 16 times field recommended herbicide dose
Avena sterilis [27] = assay: Herbicidal activity against Avena sterilis accession P05 assessed as weed survival at 8 times field recommended herbicide dose
Avena sterilis [28] = assay: Herbicidal activity against Avena sterilis accession P13S assessed as weed survival at 1/32 times field recommended herbicide dose
Avena sterilis [29] = assay: Herbicidal activity against Avena sterilis accession P14 assessed as induction of weed mortality
Avena sterilis [30] = assay: Herbicidal activity against Avena sterilis accession P03 assessed as weed survival at 4 times field recommended herbicide dose
Avena sterilis [31] = assay: Herbicidal activity against Avena sterilis accession P12 assessed as weed survival at 32 times field recommended herbicide dose
Avena sterilis [32] = assay: Herbicidal activity against Avena sterilis accession P14 assessed as weed survival at 32 times field recommended herbicide dose
Avena sterilis [33] = assay: Herbicidal activity against Avena sterilis accession P16 assessed as induction of weed mortality
Avena sterilis [34] = assay: Herbicidal activity against Avena sterilis accession P07 assessed as weed survival at 4 times field recommended herbicide dose
Avena sterilis [35] = assay: Herbicidal activity against Avena sterilis accession P13S assessed as weed survival at 1/8 times field recommended herbicide dose
Avena sterilis [36] = assay: Herbicidal activity against Avena sterilis accession P05 assessed as weed survival at 32 times field recommended herbicide dose
Avena sterilis [37] = assay: Herbicidal activity against Avena sterilis accession P22 assessed as weed survival at 4 times field recommended herbicide dose
Avena sterilis [38] = assay: Herbicidal activity against Avena sterilis accession P22 assessed as weed survival at 8 times field recommended herbicide dose
Avena sterilis [39] = assay: Herbicidal activity against Avena sterilis accession P16 assessed as weed survival at 1 times field recommended herbicide dose
Avena sterilis [40] = assay: Herbicidal activity against Avena sterilis accession P12 assessed as weed survival at 4 times field recommended herbicide dose
Avena sterilis [41] = assay: Herbicidal activity against Avena sterilis accession P05 assessed as weed survival at 1 times field recommended herbicide dose
Avena sterilis [42] = assay: Herbicidal activity against Avena sterilis accession P10S assessed as weed survival at 1/32 times field recommended herbicide dose
Avena sterilis [43] = assay: Herbicidal activity against Avena sterilis accession P09 assessed as weed survival at 16 times field recommended herbicide dose
Avena sterilis [44] = assay: Herbicidal activity against Avena sterilis accession P09 assessed as weed survival at 1 times field recommended herbicide dose
Avena sterilis [45] = assay: Herbicidal activity against Avena sterilis accession P05 assessed as weed survival at 4 times field recommended herbicide dose
Avena sterilis [46] = assay: Herbicidal activity against Avena sterilis accession P18 assessed as induction of weed mortality
Avena sterilis [47] = assay: Herbicidal activity against Avena sterilis accession P13S assessed as weed survival at 1 times field recommended herbicide dose
Avena sterilis [48] = assay: Herbicidal activity against Avena sterilis accession P18 assessed as weed survival at 8 times field recommended herbicide dose
Avena sterilis [49] = assay: Herbicidal activity against Avena sterilis accession P14 assessed as weed survival at 8 times field recommended herbicide dose
Avena sterilis [50] = assay: Herbicidal activity against Avena sterilis accession P04 assessed as weed survival at 4 times field recommended herbicide dose
Avena sterilis [51] = assay: Herbicidal activity against Avena sterilis accession P03 assessed as induction of weed mortality
Avena sterilis [52] = assay: Herbicidal activity against Avena sterilis accession P02 assessed as induction of weed mortality
Avena sterilis [53] = assay: Herbicidal activity against Avena sterilis accession P17 assessed as weed survival at 32 times field recommended herbicide dose
Avena sterilis [54] = assay: Herbicidal activity against Avena sterilis accession P15 assessed as weed survival at 32 times field recommended herbicide dose
Avena sterilis [55] = assay: Herbicidal activity against Avena sterilis accession P15 assessed as induction of weed mortality
Avena sterilis [56] = assay: Herbicidal activity against Avena sterilis accession P10S assessed as weed survival at 1/16 times field recommended herbicide dose
Avena sterilis [57] = assay: Herbicidal activity against Avena sterilis accession P08 assessed as weed survival at 1 times field recommended herbicide dose
Avena sterilis [58] = assay: Herbicidal activity against Avena sterilis accession P03 assessed as weed survival at 8 times field recommended herbicide dose

SMILES: CCOC(=O)[C@@H](C)Oc1ccc(Oc2nc3ccc(Cl)cc3o2)cc1 [FENOXAPROP-P-ETHYL]
- GR50 (Avena sterilis [1]): >2640 gAi/ha
- GR50 (Avena sterilis [2]): 303 gAi/ha
- Survival (Avena sterilis [3]): 40%
- GR50 (Avena sterilis [4]): 16 gAi/ha
- Survival (Avena sterilis [5]): 93%
- Survival (Avena sterilis [6]): 97%
- Survival (Avena sterilis [7]): 53%
- Survival (Avena sterilis [8]): 73%
- Survival (Avena sterilis [9]): 97%
- Survival (Avena sterilis [10]): 30%
- Survival (Avena sterilis [11]): 40%
- Survival (Avena sterilis [12]): 40%
- Survival (Avena sterilis [13]): 90%
- Survival (Avena sterilis [14]): 83%
- Survival (Avena sterilis [15]): 90%
- Survival (Avena sterilis [16]): 43%
- Survival (Avena sterilis [17]): 0%
- Survival (Avena sterilis [18]): 97%
- Survival (Avena sterilis [19]): 43%
- Survival (Avena sterilis [20]): 80%
- Survival (Avena sterilis [21]): 20%
- GR50 (Avena sterilis [22]): >2640 gAi/ha
- GR50 (Avena sterilis [23]): 2121 gAi/ha
- Survival (Avena sterilis [24]): 100%
- GR50 (Avena sterilis [25]): 18 gAi/ha
- Survival (Avena sterilis [26]): 60%
- Survival (Avena sterilis [27]): 20%
- Survival (Avena sterilis [28]): 90%
- GR50 (Avena sterilis [29]): 155 gAi/ha
- Survival (Avena sterilis [30]): 50%
- Survival (Avena sterilis [31]): 40%
- Survival (Avena sterilis [32]): 0%
- GR50 (Avena sterilis [33]): 505 gAi/ha
- Survival (Avena sterilis [34]): 77%
- Survival (Avena sterilis [35]): 80%
- Survival (Avena sterilis [36]): 0%
- Survival (Avena sterilis [37]): 40%
- Survival (Avena sterilis [38]): 7%
- Survival (Avena sterilis [39]): 93%
- Survival (Avena sterilis [40]): 80%
- Survival (Avena sterilis [41]): 77%
- Survival (Avena sterilis [42]): 100%
- Survival (Avena sterilis [43]): 60%
- Survival (Avena sterilis [44]): 80%
- Survival (Avena sterilis [45]): 25%
- GR50 (Avena sterilis [46]): >2640 gAi/ha
- Survival (Avena sterilis [47]): 0%
- Survival (Avena sterilis [48]): 90%
- Survival (Avena sterilis [49]): 27%
- Survival (Avena sterilis [50]): 80%
- GR50 (Avena sterilis [51]): 860 gAi/ha
- GR50 (Avena sterilis [52]): 2070 gAi/ha
- Survival (Avena sterilis [53]): 0%
- Survival (Avena sterilis [54]): 23%
- GR50 (Avena sterilis [55]): 1440 gAi/ha
- Survival (Avena sterilis [56]): 87%
- Survival (Avena sterilis [57]): 100%
- Survival (Avena sterilis [58]): 60%
